Laboratory results published in ChEMBL document CHEMBL4033609, “Naphthablins B and C, Meroterpenoids Identified from the Marine Sediment-Derived Streptomyces sp. CP26-58 Using HeLa Cell-Based Cytological Profiling” (J Nat Prod, 2017).
Active and inactive are the calls of the source. The rule behind the calls is not given here.

Legend:
HeLa [1] = experiment: Growth inhibition of human HeLa cells at 33 uM; format: functional; conditions: read-out: GI
HeLa [2] = experiment: Cytotoxic activity against human HeLa cells at 1.91 uM by cytological profiling assay; format: functional, cell-based
HeLa [3] = experiment: Cytotoxic activity against human HeLa cells at 0.382 uM by cytological profiling assay; format: functional, cell-based
HeLa [4] = experiment: Cytotoxic activity against human HeLa cells at 1.47 uM by cytological profiling assay; format: functional, cell-based
HeLa [5] = experiment: Cytotoxic activity against human HeLa cells at 0.295 uM by cytological profiling assay; format: functional, cell-based
HeLa [6] = experiment: Cytotoxic activity against human HeLa cells at 1.25 to 10 uM by cytological profiling assay; format: functional, cell-based
HeLa [7] = experiment: Cytotoxic activity against human HeLa cells; format: functional, cell-based

CCC(C)C(=O)O[C@H]1C[C@H]2[C@@H](C[C@H]1C)C1=C(OC2(C)C)C(=O)c2c(cc(O)c3c2O[C@@H]2[C@@H](O)OC[C@]32C)C1=O (some centres undefined) was tested, and the inhibition of growth at 33 µM (HeLa [1]) was 25%.

With CNc1ccc2oc(C[C@H]3O[C@@]4(CC[C@H]3C)O[C@H]([C@H](C)C(=O)c3ccc[nH]3)[C@H](C)C[C@H]4C)nc2c1C(=O)O the Activity (HeLa [2]) was “Active” and the Activity (HeLa [3]) was “Active”.

With C[C@H](CCC(=O)O)C[C@H](C)C[C@H](C)C(=O)/C=C(\O)[C@H](C)C[C@H](C)C/C=C/[C@@H](C)[C@@H](O)[C@@H](C)[C@@H](O)C[C@@H]1CC[C@@](C)([C@H]2CC[C@@](C)([C@@H](C)O)O2)O1 the Activity (HeLa [4]) was “Active” and the Activity (HeLa [5]) was “Active”.

CC(C)C(=O)O[C@H]1C[C@H]2[C@@H](C[C@H]1C)C1=C(OC2(C)C)C(=O)c2c(cc(O)c3c2O[C@@H]2[C@@H](O)OC[C@]32C)C1=O gave an inhibition of growth at 33 µM (HeLa [1]) of 32%.

For C=CC(C)(CO)c1c(O)cc2c(c1O)C(=O)C1=C(C2=O)[C@@H]2C[C@@H](C)[C@@H](OC(=O)C(C)C)C[C@@H]2C(C)(C)O1 (some centres undefined), the inhibition of growth at 33 µM (HeLa [1]) was 19%.

With CO[C@@H](C)[C@H]1C[C@H](C)[C@H]([C@@H](C)/C=C/[C@@H]2CC[C@@H](C)[C@H](/C(=C/[C@H]3CCC[C@@H](C)[C@@H]3[C@H](C)C(=O)C3=C(O)COC3=O)CO)O2)O1 [TETRONASIN 5930] the Activity (HeLa [6]) was “Active” and the IC50 (HeLa [7]) was 230 nM.
